Key:
[1] = system: CHOP, BiP, and DR5 mRNA in HCT116 cells; experiment: qPCR of UPR target transcripts (CHOP, BiP, DR5); assay type: cell-based, Homo sapiens
Description: Cells were grown in 6-well plates and harvested with 0.5 ml of TRIzol reagent (Life Technologies) per manufacturer’s protocol to extract RNA. For cDNA synthesis, 500 ng of total RNA was reverse transcribed with 2 μl of the SuperScript VILO master mix (Life Technologies # 11755050) in a total reaction volume of 10 μl following the manufacturer’s protocol for reaction temperature and duration. The reverse transcription product was diluted to 200 μl with 10 mM Tris-HCl pH 8.2 and used at 1:100 dilution for subsequent RT-PCR reactions.
PCR samples were prepared as described by manufacturer’s protocols from iQ SYBR Green Supermix (BioRad #17088800).
For each experiment, qRT-PCR reactions were set up in triplicate and run using a CFX96 Real Time System (Bio-Rad). Quantitation cycles were determined with CFX Manager 3.0 software (Bio-Rad) and then normalized to GAPDH as an internal control.

GAPDH = experiment: qPCR of GAPDH (reference transcript); assay type: cell-based; conditions: Rep 2; for avg. fold induction GAPDH / fold induction GAPDH: relative to empty traffo
[2] = Compiled Reps INS RHO, average of 6 reps

Substance: INS-GFP: GFP-tagged proinsulin expressed from plasmid
- Cq(sample) - avg Cq(GAPDH), CHOP ([1]; 24 hr, Rep 2, replicate 3): 4.191
- Cq(sample) - avg Cq(GAPDH), DR5 total ([1]; 24 hr, Rep 2, replicate 3): 4.623
- BiP avg fold change relative to empty ([1]; Compiled Reps INS RHO, average of 3 reps): 1.818
- CHOP avg fold change relative to empty [1, 2]: 4.114
- DR5 avg fold change relative to empty [1, 2]: 1.533
- GAPDH avg fold change relative to empty [1, 2]: 1.006
- GFP construct avg fold change relative to empty [1, 2]: 92.5691
- BiP fold change relative to empty ([1]; Compiled Reps INS RHO, rep 1): 1.621
- CHOP fold change relative to empty ([1]; Compiled Reps INS RHO, rep 1): 3.15
- DR5 fold change relative to empty ([1]; Compiled Reps INS RHO, rep 1): 1.705
- GAPDH fold change relative to empty ([1]; Compiled Reps INS RHO, rep 1): 0.8468
- GFP construct fold change relative to empty ([1]; Compiled Reps INS RHO, rep 1): 79.1961
- BiP fold change relative to empty ([1]; Compiled Reps INS RHO, rep 2): 1.965
- CHOP fold change relative to empty ([1]; Compiled Reps INS RHO, rep 2): 3.503
- DR5 fold change relative to empty ([1]; Compiled Reps INS RHO, rep 2): 1.533
- GAPDH fold change relative to empty ([1]; Compiled Reps INS RHO, rep 2): 1.093
- GFP construct fold change relative to empty ([1]; Compiled Reps INS RHO, rep 2): 73.666
- BiP fold change relative to empty ([1]; Compiled Reps INS RHO, rep 3): 1.867
- CHOP fold change relative to empty ([1]; Compiled Reps INS RHO, rep 3): 2.685
- DR5 fold change relative to empty ([1]; Compiled Reps INS RHO, rep 3): 1.358
- GAPDH fold change relative to empty ([1]; Compiled Reps INS RHO, rep 3): 1.081
- GFP construct fold change relative to empty ([1]; Compiled Reps INS RHO, rep 3): 131.33
- CHOP fold change relative to empty ([1]; Compiled Reps INS RHO, rep 4): 6.073
- DR5 fold change relative to empty ([1]; Compiled Reps INS RHO, rep 4): 1.494
- GAPDH fold change relative to empty ([1]; Compiled Reps INS RHO, rep 4): 0.8281
- GFP construct fold change relative to empty ([1]; Compiled Reps INS RHO, rep 4): 82.5431
- CHOP fold change relative to empty ([1]; Compiled Reps INS RHO, rep 5): 4.514
- DR5 fold change relative to empty ([1]; Compiled Reps INS RHO, rep 5): 1.718
- GAPDH fold change relative to empty ([1]; Compiled Reps INS RHO, rep 5): 1.042
- GFP construct fold change relative to empty ([1]; Compiled Reps INS RHO, rep 5): 92.9155
- CHOP fold change relative to empty ([1]; Compiled Reps INS RHO, rep 6): 4.759
- DR5 fold change relative to empty ([1]; Compiled Reps INS RHO, rep 6): 1.392
- GAPDH fold change relative to empty ([1]; Compiled Reps INS RHO, rep 6): 1.149
- GFP construct fold change relative to empty ([1]; Compiled Reps INS RHO, rep 6): 95.7639
- UPR target gene transcription ([1]; HCT116, transfected 24 hr): upregulated BiP and CHOP mRNAs
- Cq GAPDH (GAPDH; 3 hr, mean of 3 replicates): 19.1619
- avg. fold induction GAPDH (GAPDH; 3 hr, mean of 3 replicates): 1
- fold induction GAPDH (GAPDH; 3 hr, replicate 1): 0.8888
- fold induction GAPDH (GAPDH; 3 hr, replicate 2): 1.06
- fold induction GAPDH (GAPDH; 3 hr, replicate 3): 1.051
- 2^-(deltaCq) GAPDH (GAPDH; 3 hr, replicate 1): 0.8916
- Cq GAPDH (GAPDH; 3 hr, replicate 1): 19.3274
- Cq(sample) - avg Cq(GAPDH), GAPDH (GAPDH; 3 hr, replicate 1): 0.1655
- 2^-(deltaCq) GAPDH (GAPDH; 3 hr, replicate 2): 1.064
- Cq GAPDH (GAPDH; 3 hr, replicate 2): 19.0729
- Cq(sample) - avg Cq(GAPDH), GAPDH (GAPDH; 3 hr, replicate 2): -0.08892
- 2^-(deltaCq) GAPDH (GAPDH; 3 hr, replicate 3): 1.055
- Cq GAPDH (GAPDH; 3 hr, replicate 3): 19.0852
- Cq(sample) - avg Cq(GAPDH), GAPDH (GAPDH; 3 hr, replicate 3): -0.07662
- Cq GAPDH (GAPDH; 7 hr, mean of 3 replicates): 19.3003
- avg. fold induction GAPDH (GAPDH; 7 hr, mean of 3 replicates): 1.004
- fold induction GAPDH (GAPDH; 7 hr, replicate 1): 0.8393
- fold induction GAPDH (GAPDH; 7 hr, replicate 2): 1.091
- fold induction GAPDH (GAPDH; 7 hr, replicate 3): 1.082
- 2^-(deltaCq) GAPDH (GAPDH; 7 hr, replicate 1): 0.842
- Cq GAPDH (GAPDH; 7 hr, replicate 1): 19.5485
- Cq(sample) - avg Cq(GAPDH), GAPDH (GAPDH; 7 hr, replicate 1): 0.2482
- 2^-(deltaCq) GAPDH (GAPDH; 7 hr, replicate 2): 1.094
- Cq GAPDH (GAPDH; 7 hr, replicate 2): 19.1708
- Cq(sample) - avg Cq(GAPDH), GAPDH (GAPDH; 7 hr, replicate 2): -0.1295
- 2^-(deltaCq) GAPDH (GAPDH; 7 hr, replicate 3): 1.086
- Cq GAPDH (GAPDH; 7 hr, replicate 3): 19.1817
- Cq(sample) - avg Cq(GAPDH), GAPDH (GAPDH; 7 hr, replicate 3): -0.1186
- Cq GAPDH (GAPDH; 24 hr, mean of 3 replicates): 19.7046
- avg. fold induction GAPDH (GAPDH; 24 hr, mean of 3 replicates): 1.006
- fold induction GAPDH (GAPDH; 24 hr, replicate 1): 0.8281
- fold induction GAPDH (GAPDH; 24 hr, replicate 2): 1.042
- fold induction GAPDH (GAPDH; 24 hr, replicate 3): 1.149
- 2^-(deltaCq) GAPDH (GAPDH; 24 hr, replicate 1): 0.8307
- Cq GAPDH (GAPDH; 24 hr, replicate 1): 19.9722
- Cq(sample) - avg Cq(GAPDH), GAPDH (GAPDH; 24 hr, replicate 1): 0.2676
- 2^-(deltaCq) GAPDH (GAPDH; 24 hr, replicate 2): 1.045
- Cq GAPDH (GAPDH; 24 hr, replicate 2): 19.6413
- Cq(sample) - avg Cq(GAPDH), GAPDH (GAPDH; 24 hr, replicate 2): -0.06334
- 2^-(deltaCq) GAPDH (GAPDH; 24 hr, replicate 3): 1.1521
- Cq GAPDH (GAPDH; 24 hr, replicate 3): 19.5004
- Cq(sample) - avg Cq(GAPDH), GAPDH (GAPDH; 24 hr, replicate 3): -0.2043

From PMC7041945, “Misfolded proteins bind and activate death receptor 5 to trigger apoptosis during unresolved endoplasmic reticulum stress” (eLife, 2020)
